In publication PMC8951750, “In Vitro Anticancer and Cancer-Preventive Activity of New Triterpene Glycosides from the Far Eastern Starfish Solaster pacificus” (Marine Drugs, 2022):
Where “and” joins values, the source holds several entries; their conditions need not be identical. Equal entries are not always repeated. Where two headings read alike, the source gives them in different places.

Key:
[1] = system: breast cancer MDA-MB-231 cells; conditions: non-toxic concentration of 0.5 μM; cited from earlier work
melanoma RPMI-7951 cells = conditions: non-toxic concentration of 0.5 μM; cited from earlier work
[2] = system: colorectal carcinoma HT-29 cells; conditions: non-toxic concentration of 0.5 μM; cited from earlier work
JB6 Cl41 cells [3] = experiment: Soft agar assay, TPA-induced neoplastic cell transformation; format: cell-based, mouse; conditions: compound 0.1 µM, TPA 10 ng/mL, soft agar, 2 weeks, vs positive control
Protocol: (§1) JB6 Cl41 cells (2.4 × 10^4) were exposed to epidermal growth factor (EGF) (1 ng/mL) or phorbol 12-myristate 13-acetate (TPA) (10 ng/mL) and treated either with DMSO (control) or the triterpene glycosides 1–9 from S. pacificus (0.1, 0.5, and 1 µM) in 1 mL of 0.3% basal medium Eagle (BME) agar containing 10% FBS, 2 mM L-glutamine, and 25 µg/mL gentamicin (agar mix). The cultures were maintained in a humidified atmosphere with 5% CO2 at 37 °C for 14 days, and the cell’s colonies were scored using a microscope, Motic AE 20 (XiangAn, Xiamen, China), and the ImageJ software bundled with 64-bit Java 1.8.0_112 (NIH, Bethesda, MD, USA). To determine the effect of investigated compounds on neoplastic cell transformation induced by ionizing radiation (X-ray or UVB), JB6 Cl41 cells (3 × 10^5/dish) were seeded in 60 mm dishes and cultured for 24 h at 37 °C in 5% CO2 incubator. Then, the cells were exposed to X-rays (X-ray system XPERT 80 (KUB Technologies, Inc, Milford, CT, USA)) at dose of 0.5 Gy or UVB (wavelengths below 312 nm) (Bio-Link UV irradiation system, Vilber, France) at dose of 0.3 J/cm^2 three times a week for 3 weeks. Irradiated JB6 Cl41 cells (2.4 × 10^4) were treated either with DMSO (control) or the triterpene glycosides 1–9 from S. pacificus (0.1, 0.5, and 1 µM) in 1 mL of agar mix. The cultures were maintained in a humidified atmosphere with 5% CO2 at 37 °C for 14 days, and the cell’s colonies were scored using a microscope, Motic AE 20 (XiangAn, Xiamen 361101, China), and the ImageJ software bundled with 64-bit Java 1.8.0_112 (NIH, Bethesda, MD, USA).

[4] = system: non-cancerous mouse epidermal cells JB6 Cl41; experiment: Cell viability, MTS assay, JB6 Cl41; format: cell-based; conditions: MTS assay, 24 h, normal cells, read-out: IC50, cell viability JB6 Cl41
Protocol: (§2) MTS assay was used to measure the cell viability of tested normal and cancer cells. Cells were seeded into 96-well plates (“Jet Biofil”, Guangzhou, China) at density of 1.0 × 10^4/200 µL for 24 h at 37 °C in a 5% CO2 incubator. Then, cell monolayer was treated either with DMSO (control) or various concentrations of the triterpene glycosides 1–9 from S. pacificus (0.1, 0.5, 2.5, 12.5, 62.5 µM) in fresh appropriate culture medium for 24 h. Subsequently, the cells were incubated with 15 µL of 3-(4,5-dimethylthiazol-2-yl)-5-(3-carboxymethoxyphenyl)-2-(4-sulfophenyl)-2H-tetrazolium (MTS reagent) (“Promega”, Madison, WI, USA) for 3 h, and the absorbance of each well was measured at 490/630 nm using Power Wave XS microplate reader (“BioTek”, Wynusky, VT, USA). The concentration at which the compounds exert half of their maximal inhibitory effect on cell viability (IC50) was calculated by the AAT-Bioquest® online calculator [39]. The selectivity index (SI) was calculated as described previously using the following formula SI = IC50 of the compounds in normal cell (JB6 Cl41)/IC50 of the same compounds in human melanoma cell lines (SK-MEL-2, SK-MEL-28, or RPMI-7951).

[5] = system: human melanoma cells SK-MEL-2; experiment: Cell viability, MTS assay, SK-MEL-2; format: cell-based
Protocol: as §2

[6] = system: human melanoma cells SK-MEL-28; experiment: Cell viability, MTS assay, SK-MEL-28; format: cell-based; conditions: for IC50: MTS assay, 24 h, read-out: IC50, cell viability SK-MEL-28; for SI (selectivity index) SK-MEL-28: IC50 JB6 Cl41 / IC50 SK-MEL-28
Protocol: as §2

JB6 Cl41 cells [7] = experiment: Soft agar assay, X-ray-induced neoplastic cell transformation; format: cell-based, mouse; conditions: compound 0.1 µM, X-rays 0.5 Gy three times a week for 3 weeks, soft agar
Protocol: as §1

[8] = system: human melanoma cells RPMI-7951; experiment: Cell viability, MTS assay, RPMI-7951; format: cell-based; conditions: for IC50: MTS assay, 24 h, read-out: IC50, cell viability RPMI-7951; for SI (selectivity index) RPMI-7951: IC50 JB6 Cl41 / IC50 RPMI-7951
Protocol: as §2

JB6 Cl41 cells [9] = experiment: Soft agar assay, EGF-induced neoplastic cell transformation; format: cell-based, mouse; conditions: compound 0.1 µM, EGF 1 ng/mL, soft agar, 2 weeks, vs positive control
Protocol: as §1

SK-MEL-2 cells = experiment: Soft agar assay, colony formation of cancer cells; format: cell-based, human; conditions: compound 0.1 µM, 14 days
Protocol: SK-MEL-2 cells (2.4 × 10^4) were treated either with DMSO (control) or the triterpene glycosides 1–9 from S. pacificus (0.1 µM) in 1 mL of agar mix. After 14 days, colonies of cancer cells were scored as described above.

JB6 Cl41 cells [10] = experiment: Soft agar assay, UVB-induced neoplastic cell transformation; format: cell-based, mouse; conditions: compound 0.1 µM, UVB 0.3 J/cm^2 three times a week for 3 weeks, soft agar
Protocol: as §1

[11] = system: Human erythrocytes (O(I)+); experiment: Hemolysis assay; format: cell-based; conditions: 1 h, 37 °C, PBS pH 7.4
Protocol: Human erythrocytes (O(I)+) were obtained from Vladivostok blood transfusion station. Erythrocytes were centrifuged with PBS (pH 7.4) for 5 min at 4 °C by 450× g on a LABOFUGE 400R (Heraeus, Hanau, Germany) centrifuge three times. Then, the residue of erythrocytes was resuspended in ice-cold PBS (pH 7.4) to a final optical density of 2.0 at 700 nm and kept on ice. For the hemolytic assay, 180 µL of erythrocyte suspension was mixed with 20 µL of Cucumarioside A2-2 (positive control) and investigated compounds at concentrations range of 0.1, 0.5, 1, 5, 10 µM in V-bottom 96-well plates. After 1 h of incubation at 37 °C, plates were centrifuged at 900× g for 10 min on an LMC-3000 (Biosan, Riga, Latvia) laboratory centrifuge. Then, we carefully selected 100 µL of supernatant and transferred it to new flat plates, respectively. Lysis of erythrocytes was determined by measuring the concentration of hemoglobin in the supernatant with a microplate photometer Multiskan FC (Thermo Fisher Scientific, Waltham, MA, USA) at 570 nm. The effective dose causing 50% of erythrocytes hemolysis (ED50) was calculated using the computer program SigmaPlot 10.0. All experiments were made in triplicate, p < 0.01.

| Molecule | suppression of colony formation of MDA-MB-231 cells [1] | suppression of colony formation of RPMI-7951 cells (melanoma RPMI-7951 cells) | suppression of colony formation of HT-29 cells [2] | SI (selectivity index) SK-MEL-2 ([5]; IC50 JB6 Cl41 / IC50 SK-MEL-2) | SI (selectivity index) SK-MEL-28 [6] | SI (selectivity index) RPMI-7951 [8] | decrease of colonies number of SK-MEL-2 cells (colony formation) (SK-MEL-2 cells) [%] | ED50, effective dose causing 50% of erythrocytes hemolysis [11] | also measured |
| --- | --- | --- | --- | --- | --- | --- | --- | --- | --- |
| CO[C@@H]1[C@@H](O)[C@H](O[C@@H]2[C@@H](O)[C@H](O[C@H]3[C@H](O)[C@@H](O[C@@H]4OC[C@@H](O)[C@H](O)[C@H]4O)[C@H](O[C@H]4[C@H](O[C@H]5CC[C@]6(C)[C@@H]7CCC89C(=O)O[C@@](C)(/C=C\C=C(C)C)[C@H]8[C@@H](OC(C)=O)C[C@@]9(C)C7=CC[C@H]6C5(C)C)OC[C@@H](O)[C@@H]4O)O[C@@H]3C)O[C@H](CO)[C@H]2O)OC[C@H]1O (stereo partly drawn) [cucumarioside C1] | almost completely suppressed | almost completely suppressed | almost completely suppressed | – | – | – | – | – | – |
| COC1C(O)COC(OC2C(O)C(CO)OC(OC3C(C)OC(OC4C(OC5CCC6(C)C7CCC89C(=O)OC(C)(/C=C/C=C(C)C)C8C(OC(C)=O)CC9(C)C7=CCC6C5(C)C)OCC(O)C4O)C(OC4OCC(O)C(O)C4O)C3O)C2O)C1O (stereo not drawn) [cucumarioside C2] | almost completely suppressed | almost completely suppressed | almost completely suppressed | – | – | – | – | – | – |
| pacificusoside C | almost completely suppressed | almost completely suppressed | almost completely suppressed | – | – | – | – | – | – |
| COC1C(O)C(CO)OC(OC2C(O)C(CO)OC(OC3C(C)OC(OC4C(OC5CCC6(C)C7CCC89C(=O)OC(C)(C=CC=C(C)C)C8C(OC(C)=O)CC9(C)C7=CCC6C5(C)C)OCC(O)C4O)C(OC4OCC(O)C(O)C4O)C3O)C2O)C1O [Compound 1, 3β-O-{3-O-methyl-β-D-glucopyranosyl-(1→3)-β-D-glucopyranosyl-(1→4)-[β-D-xylopyranosyl-(1→2)]-β-D-quinovopyranosyl-(1→2)-β-D-xylopyranosyl}-16β-acetoxyholosta-7,22E,24-triene] | – | – | – | 9.1 | 0.8 | 0.24 | 64 | 2.03 µM and 2.03 ± 0.19 µM | inhibition at 0.1 µM (JB6 Cl41 cells [3]; Mus musculus, JB6 Cl41, 336 h, read-out: inhibition of TPA-induced neoplastic transformation of JB6 Cl41 cells): 98%; IC50 ([4]; Mus musculus, JB6 Cl41, 24 h): 6.4 ± 0.05 µM; IC50 ([5]; Homo sapiens, SK-MEL-2, 24 h, MTS assay, 24 h; read-out: IC50, cell viability SK-MEL-2): < 1 µM; IC50 ([5]; MTS assay, 24 h; read-out: IC50, cell viability SK-MEL-2): 0.7 ± 0.07 µM; IC50 ([6]; Homo sapiens, SK-MEL-28, 24 h): 8.4 ± 0.07 µM; inhibition at 0.1 µM (JB6 Cl41 cells [7]; Mus musculus, JB6 Cl41, 504 h, read-out: inhibition of X-ray-induced cell transformation (JB6 Cl41 colonies formation)): 94%; IC50 ([8]; Homo sapiens, RPMI-7951, 24 h): 26.7 ± 0.1 µM; inhibition at 0.1 µM (JB6 Cl41 cells [9]; Mus musculus, JB6 Cl41, 336 h, read-out: inhibition of EGF-induced neoplastic transformation of JB6 Cl41 cells): 94%; inhibition at 0.1 µM (JB6 Cl41 cells [10]; Mus musculus, JB6 Cl41, light or radiation study, 504 h, read-out: inhibition of UVB-induced neoplastic cell transformation (decrease of colonies number)): 96% |
| COC1C(O)COC(OC2C(O)C(COS(=O)(=O)O)OC(OC3C(C)OC(OC4C(OC5CCC6(C)C7CCC89C(=O)OC(C)(C=CC=C(C)C)C8C(OC(C)=O)CC9(C)C7=CCC6C5(C)C)OCC(O)C4O)C(O)C3O)C2O)C1O [Compound 6, 3β-O-{3-O-methyl-β-D-xylopyranosyl-(1→3)-6-O-6-sulfoxy-β-D-glucopyranosyl-(1→4)-β-D-quinovopyranosyl-(1→2)-β-D-xylopyranosyl}-16β-acetoxyholosta-7,22Z,24-triene] | – | – | – | 9.5 | 0.8 | 0.2 | 40 | 1.68 µM and 1.68 ± 0.14 µM | inhibition of TPA-induced neoplastic transformation of JB6 Cl41 cells (JB6 Cl41 cells [3]; 0.1 µM): 61%; IC50 [4]: 6.6 ± 0.3 µM; IC50 ([5]; read-out: IC50, cell viability SK-MEL-2; MTS assay, 24 h): 0.69 ± 0.03 µM; IC50 [6]: 8.2 ± 0.2 µM; inhibition of X-ray-induced cell transformation (JB6 Cl41 colonies formation) (JB6 Cl41 cells [7]; 0.1 µM): 23%; IC50 [8]: 32.4 ± 0.5 µM; inhibition of EGF-induced neoplastic transformation of JB6 Cl41 cells (JB6 Cl41 cells [9]; 0.1 µM): 44%; inhibition of UVB-induced neoplastic cell transformation (decrease of colonies number) (JB6 Cl41 cells [10]; 0.1 µM): 10% |
